The record followed here is patent US20070254903A1, “Novel Spiroindoline or Spiroisoquinoline Compounds, Methods of Use and Compositions Thereof” (ARENA PHARMACEUTICALS, INC., priority 2003, published 2007).

The subject of the assay is rats. The assay is described as follows: Measurement of blood pressure in rats (telemetry). The conditions noted are these: conscious rats, IP injection, about 120 minutes after injection; FIG. 6. It counts as in vivo, rat. As for the experimental part:
Cardiac parameters were measured by small transmitting devices, (Data Sciences PhysioTel Telemetry devices), implanted in rats. The implanted transmitting devices were used to measure blood pressure in freely moving conscious animals. There are no external connections or tethering devices that can inhibit animal movement and induce unnecessary stress, which can affect the outcome of a study.
This procedure was performed under modified aseptic conditions. Rats were anesthetized with Isoflurane gas that ranged in concentration from 1.5-2.0%. A cardiac telemetry device was implanted into the peritoneal cavity with a pressure sensing catheter situated no more than 2 cm inside the descending aorta. This was accomplished as follows: The rat was shaved and the incision site was prepared with an iodine solution. The rat was then placed on a heating pad to maintain a constant body temp of 38±0.5° C., and covered with a sterile drape. A 6 cm midline abdominal incision was made to provide access to the implantation area. […] The rats were monitored for 7 days to ensure proper recovery.
On the test day, injections with either vehicle or with test compound were administered via IP injection in volumes of ˜250 μl. Animals were monitored with a resolution of approximately one measurement/min for 60 minutes before injection of vehicle or compound and for about 120 minutes after injection.

Molecules are shown by their SMILES.

On to `C=CCN1CCC2(CC1)CN(C(=O)c1cccc(F)c1F)c1ccc(F)cc12` [Compound 75, 1′-(allyl)-1,2-dihydro-5-fluoro-1-(2,3-difluoro-benzoyl)-spiro[3H-indole-3,4′-piperidine]], for which the blood pressure change entry is listed as “did not result in a significant change in blood pressure”.
